Data as given in ChEMBL document CHEMBL1201862, “PubChem BioAssay data set” (2004).
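Values below derive from 48-hour exposures of cells grown in 96-well plates, with endpoints linearly interpolated between the two concentrations bracketing the appropriate inhibition level. Here, GI50 denotes the concentration required for 50% inhibition of growth.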 Activity calls are given as the source filed them. Cut-off read from the data, not from the text of the source: active = GI50 up to about 1.1 µM and inactive = higher.

Key:
Assay in all cases: DTP human tumour cell line panel, 48 h
[1] = system: LXFL 529
[2] = system: RXF 631
[3] = system: M19-MEL
[4] = system: KM-20L2
[5] = system: HOP-18
[6] = system: DMS-273
[7] = system: SNB-78
[8] = system: XF498
[9] = system: DMS-114

With CC(=O)Nc1ccc(C2CC(c3ccc([N+](=O)[O-])cc3)=Nc3ccccc3S2)cc1 (stereo not drawn) the GI50 [1] was 16.6 µM (inactive), the GI50 [2] was 22.9 µM (inactive) and the GI50 [3] was 18.8 µM (inactive). For the same compound, the GI50 [4] was 20.2 µM (inactive), the GI50 [5] was 24.3 µM (inactive) and the GI50 [6] was 24.4 µM (inactive). The GI50 [7] was 36.1 µM (inactive) and the GI50 [8] was 13.3 µM (inactive).
With CCC1(N=[N+]=[N-])C(=O)c2ccccc2N(c2ccccc2)C1=O (stereo not drawn) the GI50 [9] was > 100 µM (inactive), the GI50 [1] was > 100 µM (inactive) and the GI50 [3] was > 100 µM (inactive). The GI50 [4] was > 100 µM (inactive), the GI50 [5] was > 100 µM (inactive) and the GI50 [6] was > 100 µM (inactive). For the same compound, the GI50 [7] was > 100 µM (inactive) and the GI50 [8] was > 100 µM (inactive).
In the case of COC(=O)C1(C(=O)OC)CC2c3c(c4ccccc4n3C)CC(C1=O)N2Cc1ccccc1 (stereo not drawn), the GI50 [9] is reported as > 100 µM (inactive), the GI50 [1] is reported as > 100 µM (inactive) and the GI50 [2] is reported as > 100 µM (inactive). The GI50 [3] was > 100 µM (inactive), the GI50 [4] was > 100 µM (inactive) and the GI50 [6] was > 100 µM (inactive). For the same compound, the GI50 [7] was > 100 µM (inactive) and the GI50 [8] was > 100 µM (inactive).
In the case of CCCCCCCCC(C)CCCCCCCCC(=O)OCC(COP(=O)([O-])OCC[N+](C)(C)C)OC(=O)CCCCCCCCC(C)CCCCCCCC (stereo not drawn), the GI50 [9] is reported as > 100 µM (inactive), the GI50 [1] is reported as > 100 µM (inactive) and the GI50 [2] is reported as > 100 µM (inactive). The GI50 [3] was > 100 µM (inactive), the GI50 [4] was > 100 µM (inactive) and the GI50 [5] was > 100 µM (inactive). The GI50 [6] was > 100 µM (inactive) and the GI50 [7] was > 100 µM (inactive).
In the case of Cc1ccc2[nH]c(=O)c(C(C#N)c3ccccc3)nc2c1 (stereo not drawn), the GI50 [1] is reported as 32.7 µM (inactive), the GI50 [2] is reported as 44.1 µM (inactive) and the GI50 [4] is reported as 37.2 µM (inactive). For the same compound, the GI50 [5] was 24.7 µM (inactive), the GI50 [6] was 44.5 µM (inactive) and the GI50 [7] was 28.1 µM (inactive).
With Cc1[nH]c2ccccc2c1C1Cc2ccccc2N1C(=O)/C=C/C(=O)O (stereo not drawn) the GI50 [9] was > 100 µM (inactive), the GI50 [1] was > 100 µM (inactive) and the GI50 [2] was 18.4 µM (inactive). The GI50 [3] was > 100 µM (inactive), the GI50 [4] was > 100 µM (inactive) and the GI50 [6] was > 100 µM (inactive). For the same compound, the GI50 [7] was > 100 µM (inactive) and the GI50 [8] was 32.4 µM (inactive).
In the case of O=C(CSc1nnc(-c2ccc(/N=C\c3ccc(Cl)cc3)cc2)o1)Nc1cccc(Cl)c1, the GI50 [9] is reported as > 100 µM (inactive), the GI50 [1] is reported as > 100 µM (inactive) and the GI50 [3] is reported as > 100 µM (inactive). The GI50 [4] was > 100 µM (inactive), the GI50 [5] was > 100 µM (inactive) and the GI50 [6] was > 100 µM (inactive). For the same compound, the GI50 [7] was > 100 µM (inactive) and the GI50 [8] was > 100 µM (inactive).
With S=C(Nc1ccccc1)N(/N=C/C=C/c1ccccc1)c1nnc(-c2ccccc2)c(-c2ccccc2)n1 the GI50 [9] was 26.4 µM (inactive), the GI50 [2] was 80.7 µM (inactive) and the GI50 [3] was 64.9 µM (inactive). The GI50 [4] was > 100 µM (inactive), the GI50 [6] was 45.5 µM (inactive) and the GI50 [7] was > 100 µM (inactive). For the same compound, the GI50 [8] was 61 µM (inactive).
For Cn1nc(-c2ccccc2)c(C(=O)/C=C/c2ccccc2)c(N2CCOCC2)c1=O, the GI50 [9] was 16.8 µM (inactive), the GI50 [1] was 16 µM (inactive) and the GI50 [3] was 23.1 µM (inactive). For the same compound, the GI50 [4] was 18.1 µM (inactive), the GI50 [5] was 28.6 µM (inactive) and the GI50 [6] was 19.8 µM (inactive). The GI50 [8] was 12.7 µM (inactive).
For CCOC(=O)NC(=O)c1cn(CCN2CCN(C(=O)NCCCCCCNC(=O)N3CCN(CCn4cc(C(=O)NC(=O)OCC)c(=O)n(CCN(CC)CC)c4=O)CC3)CC2)c(=O)n(CCC(CC)CC)c1=O, the GI50 [9] was > 100 µM (inactive), the GI50 [1] was > 100 µM (inactive) and the GI50 [3] was > 100 µM (inactive). The GI50 [4] was > 100 µM (inactive), the GI50 [5] was > 100 µM (inactive) and the GI50 [6] was > 100 µM (inactive). For the same compound, the GI50 [7] was > 100 µM (inactive).
For COc1ccc(C2C(Cl)C(=O)N2NC(=O)c2ccc(N)cc2)cc1OC (stereo not drawn), the GI50 [1] was 1.95 µM (inactive), the GI50 [3] was 4.95 µM (inactive) and the GI50 [4] was 12.1 µM (inactive). For the same compound, the GI50 [6] was 2.72 µM (inactive), the GI50 [7] was 63.7 µM (inactive) and the GI50 [8] was 1 µM (active).
OCC(O)C(O)C(O)C1SC(c2ccccc2)=NN1c1ccccc1 (stereo not drawn) was tested, and the GI50 [9] was > 84.7 µM (inactive), the GI50 [1] was > 95.5 µM (inactive) and the GI50 [2] was 49.3 µM (inactive). For the same compound, the GI50 [3] was > 100 µM (inactive), the GI50 [4] was > 100 µM (inactive) and the GI50 [5] was 51.8 µM (inactive). The GI50 [6] was > 76.6 µM (inactive), the GI50 [7] was 44.4 µM (inactive) and the GI50 [8] was 30.1 µM (inactive).
With O=[N+]([O-])c1cc(Cl)ccc1OCc1ccccc1 the GI50 [9] was 29.4 µM (inactive), the GI50 [1] was 41.6 µM (inactive) and the GI50 [2] was > 100 µM (inactive). The GI50 [3] was 44.3 µM (inactive), the GI50 [6] was 54.6 µM (inactive) and the GI50 [7] was 32.8 µM (inactive). For the same compound, the GI50 [8] was 20.4 µM (inactive).
With O=c1c2cc(-c3ccccc3)sc2nc2sc(-c3ccccc3)nn12 the GI50 [9] was > 100 µM (inactive), the GI50 [1] was > 100 µM (inactive) and the GI50 [2] was > 100 µM (inactive). For the same compound, the GI50 [3] was > 100 µM (inactive), the GI50 [4] was > 100 µM (inactive) and the GI50 [5] was > 100 µM (inactive). For the same compound, the GI50 [6] was > 100 µM (inactive), the GI50 [7] was > 100 µM (inactive) and the GI50 [8] was > 100 µM (inactive).
For CC(=O)c1cccc(NC(=O)C(=O)C(C2OC(=O)c3ccccc32)[N+](=O)[O-])c1 (stereo not drawn), the GI50 [9] was > 100 µM (inactive), the GI50 [1] was > 100 µM (inactive) and the GI50 [2] was > 100 µM (inactive). The GI50 [3] was > 100 µM (inactive), the GI50 [4] was > 100 µM (inactive) and the GI50 [7] was > 100 µM (inactive). The GI50 [8] was > 100 µM (inactive).
For O=C(O)C(=O)/C=C\c1ccc(Cl)cc1, the GI50 [9] was 84.1 µM (inactive), the GI50 [1] was > 100 µM (inactive) and the GI50 [3] was > 100 µM (inactive). The GI50 [4] was > 100 µM (inactive), the GI50 [5] was > 100 µM (inactive) and the GI50 [6] was > 100 µM (inactive). For the same compound, the GI50 [7] was > 100 µM (inactive) and the GI50 [8] was > 100 µM (inactive).
With OC1c2ccccc2C2C(O)c3ccccc3C12 (stereo not drawn) the GI50 [9] was > 100 µM (inactive), the GI50 [1] was > 100 µM (inactive) and the GI50 [2] was > 100 µM (inactive). For the same compound, the GI50 [3] was > 100 µM (inactive), the GI50 [4] was > 100 µM (inactive) and the GI50 [5] was > 100 µM (inactive). For the same compound, the GI50 [6] was > 100 µM (inactive).
For COc1cc(/C=N/N=C(\N)NO)c([N+](=O)[O-])cc1OC, the GI50 [9] was 6.75 µM (inactive), the GI50 [1] was 27 µM (inactive) and the GI50 [2] was 26.7 µM (inactive). For the same compound, the GI50 [3] was 31.9 µM (inactive), the GI50 [4] was 30.1 µM (inactive) and the GI50 [5] was 21 µM (inactive). For the same compound, the GI50 [6] was 25.9 µM (inactive) and the GI50 [7] was 76.2 µM (inactive).
N#Cc1c(N)oc2cc3c(C#N)c(N)oc3cc12 was tested, and the GI50 [9] was > 100 µM (inactive), the GI50 [1] was > 100 µM (inactive) and the GI50 [2] was > 100 µM (inactive). For the same compound, the GI50 [3] was > 100 µM (inactive), the GI50 [4] was > 100 µM (inactive) and the GI50 [5] was > 100 µM (inactive). The GI50 [6] was > 100 µM (inactive).
With O=C1C2C3C=C4c5ccccc5N(c5ccccc5)C4(C2C(=O)N1c1ccc([N+](=O)[O-])cc1)[C@H]1C(=O)N(c2ccc([N+](=O)[O-])cc2)C(=O)[C@@H]31 (stereo partly drawn) the GI50 [9] was > 100 µM (inactive), the GI50 [3] was > 100 µM (inactive) and the GI50 [4] was > 100 µM (inactive). The GI50 [5] was > 100 µM (inactive), the GI50 [6] was > 100 µM (inactive) and the GI50 [7] was > 100 µM (inactive).
With CCN(CC)CCCC(C)NC(=O)c1ccc2c(c1)C(=O)c1ccccc1C2=O (stereo not drawn) the GI50 [9] was 11.4 µM (inactive), the GI50 [1] was 24.7 µM (inactive) and the GI50 [2] was 24.1 µM (inactive). The GI50 [3] was 16.7 µM (inactive), the GI50 [4] was 18.3 µM (inactive) and the GI50 [5] was > 85.5 µM (inactive). The GI50 [6] was 21.9 µM (inactive), the GI50 [7] was 22.9 µM (inactive) and the GI50 [8] was 16.1 µM (inactive).
